Holding throughout (format): cell-based
The subject of one test is MOLT-4 cells. Put plainly: MOLT-4 cell viability, CTG assay. The settings on record: Homo sapiens, MOLT-4, 48 h. The gist of the method:
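Cells grown in RPMI 1640 with 10% FBS at 37° C, 5% CO2, then exposed to compounds for 48 h (11-point 5-fold dilution, triplicates). ATP measured by CellTiter-Glo luminescence; IC50 from four-parameter fit versus control, mean of ≥2 independent experiments.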

Another test addresses T1, HiBiT-tagged BCL-xL (Homo sapiens, UniProt Q07817).
T1 construct: expressed in transfected cells; host or cells: NCI-H1650 (ATCC No. CRL-5883), engineered HiBiT cell line
Put plainly: NCI-H1650 BCL-xL protein levels, Nano-Glo HiBiT Lytic Detection. The settings on record: NCI-H1650 expressing HiBiT-tagged BCL-xL, overnight incubation, read-out: Bcl-xl HIBIT NCIH1650 DC50. The gist of the method:
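NCI-H1650 cells expressing HiBiT-tagged BCL-xL (5000/well) were treated overnight at 37° C with 10 concentrations, final 0.508 nM-10 μM, in triplicate. Remaining BCL-xL measured by Nano-Glo HiBiT lytic luminescence, normalized to untreated cells; 50% values by four-parameter logistic fit.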
Background: With HiBiT, luminescence reflects the tagged protein that the partner subunit can reach.

For test [1], the system named is EBC-1 lung cancer cell line. Put plainly: EBC-1 cell proliferation, CellTiter-Glo assay. The settings on record: Homo sapiens, 120 h; Ebc-1 cell viability, CTG assay, 5 days of treatment; read-out: CTG 5 day Ebc1 GI50. The gist of the method: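 EBC-1 cells seeded at 1000 per well overnight, then exposed to 10-point dilutions (0.508 nM–10 μM final) for 5 days at 37 °C, in triplicate. ATP luminescence by CellTiter-Glo, normalised to untreated wells; GI50 from four-parameter logistic fit, runs valid only with at least one doubling.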

The target in another test is T2, Bcl-xL (Homo sapiens, UniProt Q07817).
T2 construct: Measured levels of Bcl-xL protein of HCT116 cells treated with the tested compounds; host or cells: HCT116
T2 sequence (Q07817 whole entry): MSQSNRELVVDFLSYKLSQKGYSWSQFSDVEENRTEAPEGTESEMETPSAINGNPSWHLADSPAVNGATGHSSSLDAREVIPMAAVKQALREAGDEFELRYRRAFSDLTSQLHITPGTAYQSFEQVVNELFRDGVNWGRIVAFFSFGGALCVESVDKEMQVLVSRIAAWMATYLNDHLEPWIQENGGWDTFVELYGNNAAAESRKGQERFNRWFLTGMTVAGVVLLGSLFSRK
Put plainly: HCT116 Bcl-xL degradation, capillary-based immunoassay (WES). The settings on record: HCT116, 24 h, 9-point serial dilution. The gist of the method:
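HCT116 cells treated 24 h with compound at 10/100 nM and/or 9-point dilution (quadruplicates), then lysed. Bcl-xL measured by capillary WES immunoassay, normalized to cofilin and expressed as % of untreated cells. DC50 from four-parameter curve fit.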

Each structure is given as a SMILES string.

T1 sequence (Q07817 whole entry): as above

Regarding `Cc1ncsc1-c1ccc([C@H](C)NC(=O)[C@@H]2C[C@@H](O)CN2C(=O)[C@@H](NC(=O)CCCCCCCCCNC(=O)c2nc(N3CCCc4c3nnc(Nc3nc5ccccc5s3)c4C)ccc2-c2cnn(CC34CC5(C)CC(C)(C3)CC(OCCN3CCCC3)(C5)C4)c2C)C(C)(C)C)cc1` [Example 130, 6-[3-(1,3-benzothiazol-2-ylamino)-4-methyl-6,7-dihydro-5H-pyrido[2,3-c]pyridazin-8-yl]-3-[1-[[3,5-dimethyl-7-(2-pyrrolidin-1-ylethoxy)-1-adamantyl]methyl]-5-methyl-pyrazol-4-yl]-N-[10-[[(1S)-1-[(2S,4R)-4-hydroxy-2-[[(1S)-1-[4-(4-methylthiazol-5-yl)phenyl]ethyl]carbamoyl]pyrrolidine-1-carbonyl]-2,2-dimethyl-propyl]amino]-10-oxo-decyl]pyridine-2-carboxamide], half-maximal inhibition in the test on MOLT-4 cells (IC50) required 4.04 nM. Besides, the DC50 amounted to 1 nM on HiBiT-tagged BCL-xL and 0.857 nM on Bcl-xL. Also, the GI50 (in general, the concentration that inhibits growth by half) in test [1] was 2 nM.
In the case of `Cc1ncsc1-c1ccc([C@H](C)NC(=O)[C@@H]2C[C@@H](O)CN2C(=O)[C@@H](NC(=O)C2CCN(C(=O)CCCCCCCCCN(C)CCOC34CC5(C)CC(C)(CC(Cn6ncc(-c7ccc(N8CCCc9c8nnc(Nc8nc%10ccccc%10s8)c9C)nc7C(=O)O)c6C)(C5)C3)C4)CC2)C(C)(C)C)cc1` [Example 84, 6-[3-(1,3-benzothiazol-2-ylamino)-4-methyl-6,7-dihydro-5H-pyrido[2,3-c]pyridazin-8-yl]-3-[1-[[3-[2-[[10-[4-[[(1S)-1-[(2S,4R)-4-hydroxy-2-[[(1S)-1-[4-(4-methylthiazol-5-yl)phenyl]ethyl]carbamoyl]pyrrolidine-1-carbonyl]-2,2-dimethyl-propyl]carbamoyl]-1-piperidyl]-10-oxo-decyl]-methyl-amino]ethoxy]-5,7-dimethyl-1-adamantyl]methyl]-5-methyl-pyrazol-4-yl]pyridine-2-carboxylic acid], in the test on MOLT-4 cells, the IC50 – broadly, the midpoint of a concentration-inhibition curve – was 18.1 nM. Moreover, the DC50 on HiBiT-tagged BCL-xL is over 1670 nM; on Bcl-xL it was over 316 nM. In test [1], the GI50 worked out at 171 nM.
The compound `Cc1ncsc1-c1ccc([C@H](C)NC(=O)[C@@H]2C[C@@H](O)CN2C(=O)[C@@H](NC(=O)CCCCCCCCCCCNC(=O)c2nc(N3CCCc4c3nnc(Nc3nc5ccccc5s3)c4C)ccc2-c2cnn(CC34CC5(C)CC(C)(C3)CC(OCCN3CCCC3)(C5)C4)c2C)C(C)(C)C)cc1` [Example 131, 6-[3-(1,3-benzothiazol-2-ylamino)-4-methyl-6,7-dihydro-5H-pyrido[2,3-c]pyridazin-8-yl]-3-[1-[[3,5-dimethyl-7-(2-pyrrolidin-1-ylethoxy)-1-adamantyl]methyl]-5-methyl-pyrazol-4-yl]-N-[12-[[(1S)-1-[(2S,4R)-4-hydroxy-2-[[(1S)-1-[4-(4-methylthiazol-5-yl)phenyl]ethyl]carbamoyl]pyrrolidine-1-carbonyl]-2,2-dimethyl-propyl]amino]-12-oxo-dodecyl]pyridine-2-carboxamide] returned an IC50 in the test on MOLT-4 cells of 13.9 nM. In addition, the DC50 turned out to be 1 nM on HiBiT-tagged BCL-xL and 1.34 nM at Bcl-xL. In addition, in test [1], the GI50 is 8 nM.
For `Cc1ncsc1-c1ccc([C@H](C)NC(=O)[C@@H]2C[C@@H](O)CN2C(=O)[C@@H](NC(=O)C2CCN(C(=O)CCCCCCCCCCN(C)CCOC34CC5(C)CC(C)(CC(Cn6ncc(-c7ccc(N8CCCc9c8nnc(Nc8nc%10ccccc%10s8)c9C)nc7C(=O)O)c6C)(C5)C3)C4)CC2)C(C)(C)C)cc1` [Example 82, 6-[3-(1,3-benzothiazol-2-ylamino)-4-methyl-6,7-dihydro-5H-pyrido[2,3-c]pyridazin-8-yl]-3-[1-[[3-[2-[[11-[4-[[(1S)-1-[(2S,4R)-4-hydroxy-2-[[(1S)-1-[4-(4-methylthiazol-5-yl)phenyl]ethyl]carbamoyl]pyrrolidine-1-carbonyl]-2,2-dimethyl-propyl]carbamoyl]-1-piperidyl]-11-oxo-undecyl]-methyl-amino]ethoxy]-5,7-dimethyl-1-adamantyl]methyl]-5-methyl-pyrazol-4-yl]pyridine-2-carboxylic acid], in that order: 10 nM, over 1670 nM, over 316 nM and 157 nM.
As for `Cc1ncsc1-c1ccc([C@H](C)NC(=O)[C@@H]2C[C@@H](O)CN2C(=O)[C@@H](NC(=O)COCCCCCCCCCN(C)CCOC23CC4(C)CC(C)(CC(Cn5ncc(-c6ccc(N7CCCc8c7nnc(Nc7nc9ccccc9s7)c8C)nc6C(=O)O)c5C)(C4)C2)C3)C(C)(C)C)cc1` [Example 109, 6-[3-(1,3-benzothiazol-2-ylamino)-4-methyl-6,7-dihydro-5H-pyrido[2,3-c]pyridazin-8-yl]-3-[1-[[3-[2-[9-[2-[[(1S)-1-[(2S,4R)-4-hydroxy-2-[[(1S)-1-[4-(4-methylthiazol-5-yl)phenyl]ethyl]carbamoyl]pyrrolidine-1-carbonyl]-2,2-dimethyl-propyl]amino]-2-oxo-ethoxy]nonyl-methyl-amino]ethoxy]-5,7-dimethyl-1-adamantyl]methyl]-5-methyl-pyrazol-4-yl]pyridine-2-carboxylic acid], the IC50 with MOLT-4 cells worked out at 7.84 nM. The DC50 at HiBiT-tagged BCL-xL came to 1 nM; on Bcl-xL it was 0.155 nM. In addition, the GI50 in test [1] worked out at 98 nM.
The compound `Cc1ncsc1-c1ccc([C@H](C)NC(=O)[C@@H]2C[C@@H](O)CN2C(=O)[C@@H](NC(=O)CCCCCCNC(=O)c2nc(N3CCCc4c3nnc(Nc3nc5ccccc5s3)c4C)ccc2-c2cnn(CC34CC5(C)CC(C)(C3)CC(OCCN3CCCC3)(C5)C4)c2C)C(C)(C)C)cc1` [Example 120, 6-[3-(1,3-benzothiazol-2-ylamino)-4-methyl-6,7-dihydro-5H-pyrido[2,3-c]pyridazin-8-yl]-3-[1-[[3,5-dimethyl-7-(2-pyrrolidin-1-ylethoxy)-1-adamantyl]methyl]-5-methyl-pyrazol-4-yl]-N-[7-[[(1S)-1-[(2S,4R)-4-hydroxy-2-[[(1S)-1-[4-(4-methylthiazol-5-yl)phenyl]ethyl]carbamoyl]pyrrolidine-1-carbonyl]-2,2-dimethyl-propyl]amino]-7-oxo-heptyl]pyridine-2-carboxamide] came in with an IC50 with MOLT-4 cells of 7.29 nM. The DC50 on HiBiT-tagged BCL-xL was determined as 1 nM; on Bcl-xL, 1.68 nM. The GI50 in test [1] stood at 119 nM.
With `Cc1ncsc1-c1ccc([C@H](C)NC(=O)[C@@H]2C[C@@H](O)CN2C(=O)[C@@H](NC(=O)CCCCNC(=O)c2nc(N3CCCc4c3nnc(Nc3nc5ccccc5s3)c4C)ccc2-c2cnn(CC34CC5(C)CC(C)(C3)CC(OCCN3CCCC3)(C5)C4)c2C)C(C)(C)C)cc1` [Example 122, 6-[3-(1,3-benzothiazol-2-ylamino)-4-methyl-6,7-dihydro-5H-pyrido[2,3-c]pyridazin-8-yl]-3-[1-[[3,5-dimethyl-7-(2-pyrrolidin-1-ylethoxy)-1-adamantyl]methyl]-5-methyl-pyrazol-4-yl]-N-[5-[[(1S)-1-[(2S,4R)-4-hydroxy-2-[[(1S)-1-[4-(4-methylthiazol-5-yl)phenyl]ethyl]carbamoyl]pyrrolidine-1-carbonyl]-2,2-dimethyl-propyl]amino]-5-oxo-pentyl]pyridine-2-carboxamide], in the test with MOLT-4 cells, the IC50 was 4.6 nM. The DC50 on HiBiT-tagged BCL-xL was over 1670 nM; on Bcl-xL, over 316 nM. Besides, the GI50 in test [1] was determined as 46 nM.
For the compound `Cc1cc(N(CCCCN(C)C(=O)CCCCCCCCCCCCC(=O)N[C@H](C(=O)N2C[C@H](O)C[C@H]2C(=O)N[C@@H](C)c2ccc(-c3scnc3C)cc2)C(C)(C)C)c2ccc(-c3cnn(CC45CC6(C)CC(C)(C4)CC(OCCN(C)C)(C6)C5)c3C)c(C(=O)O)n2)nnc1Nc1nc2ccccc2s1` [Example 116, 6-[[6-(1,3-benzothiazol-2-ylamino)-5-methyl-pyridazin-3-yl]-[4-[[14-[[(1S)-1-[(2S,4R)-4-hydroxy-2-[[(1S)-1-[4-(4-methylthiazol-5-yl)phenyl]ethyl]carbamoyl]pyrrolidine-1-carbonyl]-2,2-dimethyl-propyl]amino]-14-oxo-tetradecanoyl]-methyl-amino]butyl]amino]-3-[1-[[3-[2-(dimethylamino)ethoxy]-5,7-dimethyl-1-adamantyl]methyl]-5-methyl-pyrazol-4-yl]pyridine-2-carboxylic acid], in the test with MOLT-4 cells, the 50% inhibitory concentration (IC50) turned out to be 16.1 nM. Besides, the DC50 came out at 1 nM on HiBiT-tagged BCL-xL and 3.6 nM at Bcl-xL. Moreover, the GI50 in test [1] turned out to be 45 nM.
